Patent US20200165194A1, “ADDITIVE COMPOSITION FOR CULTURE MEDIUM, ADDITIVE COMPOUND FOR CULTURE MEDIUM, AND METHOD FOR CULTURE OF CELLS OR TISSUE USING SAME” (NISSAN CHEMICAL CORPORATION, priority 2017, published 2020)
Where two headings read alike, the source gives them in different places.

Legend:
Format in all cases: cell-based
[1] = tested on: Canine kidney renal tubule epithelial cells (MDCK cells); assay: MDCK cells-2: Cyst formation on Matrigel, size and number of Cysts (Experimental Example 8); settings: for proportion of Cysts of 70 μm or more: 6 days, control 35%; for Cyst morphology, confocal fluorescence microscope (in words): FIG. 1
Procedure: Canine kidney renal tubule epithelial cells (MDCK cells, manufactured by DS PHARMA BIO MEDICAL) were precultured in EMEM medium containing 10% FBS and 1% NEAA. Cold Matrigel (registered trade mark) Matrix GFR (manufactured by Corning) was spread on a 24-well plate by 50 μL and fixed by incubating at 37° C. for 15 min. The aforementioned MDCK cells were suspended in a medium at 10000 cells/mL, cold Matrigel (registered trade mark) Matrix GFR was added at 20 μL/mL and seeded at 1 mL/well. […] As a control (compound no-addition), DMSO was added at a final concentration of 0.1%. Six days later, the size and number of Cysts formed were measured using Cell^3iMager (manufactured by Screen Inc.). The proportion of the Cysts of 70 μm or more in the entire Cysts is shown in the fourteenth table.
The cells were washed with PBS (1 mL/well), 4% paraformaldehyde/PBS (manufactured by Wako Pure Chemical Industries, Ltd.) was added (1 mL/well) and fixed at room temperature for 20 min. Thereafter, the supernatant was removed, IF buffer (0.2% Triton X-100 (manufactured by Sigma-Aldrich), 0.05% Tween 20 (manufactured by Sigma-Aldrich)-containing PBS) were added at 1 mL/well, stood for 30 min and removed. Penetration buffer (0.5% Triton X-100 (manufactured by Sigma-Aldrich)/PBS) was added at 1 mL/well and incubated at room temperature for 30 min. The supernatant was removed, washed 3 times every 5 min with IF buffer, blocking buffer (1% BSA (manufactured by Sigma-Aldrich)/IF buffer) was added at 0.5 mL/well and incubated for 30 min. The supernatant was removed, an anti-P catenin antibody (manufactured by BD Bioscience) diluted 100-fold with blocking buffer was added at 250 μL/well, and the cells were incubated at room temperature for 60 min. The cells were washed 3 times every 5 min with IF buffer, the secondary antibody (Alexa Fluor 555, manufactured by Thermo Fisher Scientific) and Phalloidin (Alexa Fluor 488, manufactured by Thermo Fisher Scientific), each diluted 250-fold with blocking buffer, were added at 250 μL/well, and the cells were incubated at room temperature in shading for 60 min.

[2] = tested on: human ovarian cancer cell line SKOV3; assay: Action on SKOV3 cell-1: 3D (deacylated gellan gum) and 2D culture, HB-EGF medium, ATP assay (Experimental Example 2); settings: for viability at 0.5 µM / viability at 1 µM / viability at 5 µM / viability at 10 µM / viability at 20 µM: Homo sapiens, SK-OV-3, 96 h, read-out: relative value of RLU (number of viable cells); for viability at 0.5 µM / viability at 1 µM / viability at 5 µM / viability at 10 µM / viability at 20 µM / relative value of RLU (number of viable cells): 4 days, compound non-addition = 100%
Procedure: According to the method of patent document 1 (WO 2014/017513), a composition of McCoy's 5a medium (manufactured by Sigma-Aldrich) containing 0.015% (w/v) deacylated gellan gum (KELCOGEL CG-LA, manufactured by Sansho Co., Ltd.) and 15% (v/v) FBS, 100 ng/mL human HB-EGF (manufactured by PEPROTECH) was prepared by a homomixer. As a control, a non-addition medium composition not containing deacylated gellan gum was prepared. Then, human ovarian cancer cell line SKOV3 (manufactured by DS PHARMA BIO MEDICAL) was suspended in the above-mentioned medium composition added with deacylated gellan gum, and dispensed into the wells of a 384 well flat bottom Ultr-low Attachment surface microplate (manufactured by Corning Incorporated, #3827) at 1000 cells/40 μL/well (three-dimensional culture (3D)). In a single layer culture (2D), human ovarian cancer cell line SKOV3 was suspended in the above-mentioned medium is composition not containing deacylated gellan gum, and dispensed into the wells of a 384 well flat bottom microplate (manufactured by Corning Incorporated, #3712) at 400 cells/40 L per well. Each plate was cultured in a standing state in a CO2 incubator (37° C., 5% CO2). On day 1 of culture, the compound to be used in the present invention dissolved in dimethyl sulfoxide (DMSO) was added by 4.4 μL each at a final concentration of 0, 0.5, 1, 5, 10, 20 μM, and continuously cultured for 4 days. An ATP reagent (44.4 μL) (CellTiter-Glo (registered trade mark) Luminescent Cell Viability Assay, manufactured by Promega) was added to and suspended in the culture medium on day 5, and the suspension was stood for 15 min at room temperature. The luminescence intensity (RLU value) was measured by FlexStation3 (manufactured by Molecular Devices) and the luminescence value of the medium alone was subtracted to measure the number of viable cells.

[3] = tested on: a plurality of cancer cell lines; assay: Various human cancer cells-1, summary over the cell lines (Experimental Example 5); settings: cancer cell lines under three-dimensional conditions
From the text: Various human-derived cancer cells were precultured (single layer culture) in respective media shown below. […]

[4] = 2D single layer culture, 0.5 μM
[5] = 3D culture (deacylated gellan gum), 0.5 μM
[6] = 3D culture (deacylated gellan gum), 1 μM
[7] = 3D culture (deacylated gellan gum), 5 μM
[8] = 3D culture (deacylated gellan gum), 10 μM
[9] = 3D culture (deacylated gellan gum), 20 μM
[10] = single layer culture (2D) of SKOV3 cells
[11] = three-dimensional culture (3D) of SKOV3 cells

Compound: CC/C(=N\NC(=O)NCc1ccccc1)c1ccc(O)c(C)c1O [k-1:I-1]
- proportion of Cysts of 70 μm or more in the entire Cysts (in words) [1]: increased
- proportion of Cysts of 70 μm or more ([1]; 5 μM): 39%
- proportion of Cysts of 70 μm or more ([1]; 10 μM): 43%
- Cyst morphology, confocal fluorescence microscope (in words) [1]: a normal Cyst was formed

Compound: CC/C(=N\NC(=O)Nc1ccccc1)c1ccc(O)c(C)c1O [k-1:H-10]
- viability at 0.5 µM [2, 4]: 111%
- viability at 1 µM ([2]; 2D single layer culture, 1 μM): 108%
- viability at 5 µM ([2]; 2D single layer culture, 5 μM): 102%
- viability at 10 µM ([2]; 2D single layer culture, 10 μM): 99%
- viability at 20 µM ([2]; 2D single layer culture, 20 μM): 66%
- viability at 0.5 µM [2, 5]: 120%
- viability at 1 µM [2, 6]: 120%
- viability at 5 µM [2, 7]: 128%
- viability at 10 µM [2, 8]: 138%
- viability at 20 µM [2, 9]: 129%
- cell proliferation promoting effect (in words) [2, 10]: a favorable cell proliferation promoting effect was not observed
- cell proliferation promoting effect (in words) [2, 11]: exhibited cell proliferation promoting effect at a wide concentration range
- proliferation activity (in words) [3]: promoted proliferation activity in a plurality of cancer cell lines

Compound: CC/C(=N\NC(=O)C(C)Nc1ccccc1)c1ccc(O)c(C)c1O (stereo not shown) [k-1:B-1]
- proportion of Cysts of 70 μm or more in the entire Cysts (in words) [1]: increased
- proportion of Cysts of 70 μm or more ([1]; 5 μM): 72%
- proportion of Cysts of 70 μm or more ([1]; 10 μM): 68%
- Cyst morphology, confocal fluorescence microscope (in words) [1]: a normal Cyst was formed

Compound: CCC(=NNC(=O)C(CC)Nc1ccccc1)c1ccc(O)c(C)c1O (stereo not shown) [k-1:H-7]
- relative value of RLU (number of viable cells) [2, 4]: 110%
- relative value of RLU (number of viable cells) ([2]; 2D single layer culture, 1 μM): 105%
- relative value of RLU (number of viable cells) ([2]; 2D single layer culture, 5 μM): 91%
- relative value of RLU (number of viable cells) ([2]; 2D single layer culture, 10 μM): 69%
- relative value of RLU (number of viable cells) ([2]; 2D single layer culture, 20 μM): 47%
- relative value of RLU (number of viable cells) [2, 5]: 104%
- relative value of RLU (number of viable cells) [2, 6]: 137%
- relative value of RLU (number of viable cells) [2, 7]: 176%
- relative value of RLU (number of viable cells) [2, 8]: 150%
- relative value of RLU (number of viable cells) [2, 9]: 110%
- cell proliferation promoting effect (in words) [2, 10]: a favorable cell proliferation promoting effect was not observed
- cell proliferation promoting effect (in words) [2, 11]: exhibited cell proliferation promoting effect at a wide concentration range
- proliferation activity (in words) [3]: promoted proliferation activity in a plurality of cancer cell lines
